Key:
[1] = system: MDA-MB435S (Melanoma); experiment: Monolayer assay (CCK-8 cytotoxicity); type: cell-based; conditions: Homo sapiens, MDA-MB-435S, MDAMB435S, 24 hrs exposure
Experimental: (§1) The assays were designed as in the reference, BMC Cancer, 2010, 10, 610, 1-11; the disclosure of which is incorporated by reference for the teaching of the assay.
(§2) Human tumour cell lines: Panc-1 (Pancreatic Cancer), HCT 116 (Colorectal Cancer), ACHN (Renal Cell Carcinoma), Calu-1 (Lung Carcinoma), MiaPaca2 (Pancreatic Cancer), FADU (Head and Neck Cancer), PC3 (prostate Cancer), G361 (Melanoma), MDA-MB435S (Melanoma), HeLa (Cervical Cancer) were grown in Minimal Essential Media with Eagle's Basal Salts (MEM-EBS) obtained from AMIMED (BioConcept-Switzerland). Tumour cell lines: MDA-MB231 (Breast Cancer), JURKAT (T cell leukaemia), H460 (Small Cell Lung Cancer) were cultured in RPMI 1640 (AMIMED, BioConcept, Switzerland) medium. All tumour cell lines were supplemented with 10% Foetal Bovine Serum (FBS) (GIBCO), 1% Penicillin/Streptomycin (Sigma) and 1% Anti-Anti (GIBCO) and grown in T-175 tissue culture flasks (Nunc). MCF-10A, a non-tumourigenic cell line, was cultured in Mammary Epithelial Basal Medium (MEBM) with all standard additions (Lonza, Catalog. No. CC-3150). All cells were grown in 5% CO2 incubator at 37° C. Cells were passaged at 80-90% confluence. Adherent cells were trypsinised using Trypsin-EDTA (Sigma) and maintained. All cell lines were purchased from ATCC (Rockville, Md., USA).
(§3) Compound of Formula (1a) [described in example 7] was dissolved in DMSO to give a required stock solution of 20 mM. Eight different concentrations of the compound of Formula (1a) were prepared by serial dilution of stock solution finally resulting in a (compared to the test concentration) 200-fold higher concentration. Compound of Formula (1a) was tested at the concentration of 0.0001 μM, 0.001 μM, 0.01 μM, 0.03 μM, 0.1 μM, 0.3 μM, 1 μM and 3 μM respectively. Each concentration was evaluated in triplicate.
(§4) Method for determination of IC50 of the compound of Formula (1a): • a) Different cancer/normal cells were seeded at a density of 3000 cells/200 μL well, in a tissue culture grade 96 well plate and allowed them to recover for 24 hrs in a humidified 5±0.2% CO2 incubator at 37±0.5° C. • b) After 24 hrs, 1 μL of 200× (200 times higher than required concentration is denoted as 200×) compound of Formula (1a), dissolved in DMSO, was added to the above tissue culture plate seeded with cancer/normal cells. The final concentration of DMSO was 0.5% in wells. DMSO was used as a vehicle control. • c) After 24 hrs the plate was removed from CO2 incubator and 5 μL of CCK-8 (Dojindo Molecular Technologies, Inc. USA, catalog, no. CK04-20) per well was added. • d) The plate was then placed at 37° C. for 2 hrs. • e) The absorbance was recorded at 450 nm. • f) The percent cytotoxicity was calculated using the following formula
(§5) The IC50 value was estimated by visual inspection of the concentration-effect curve. For calculation of mean IC50 values over the fourteen cell lines as tested, the geometric mean was selected.

[2] = system: ACHN (Renal Cell Carcinoma); experiment: Monolayer assay (CCK-8 cytotoxicity); type: cell-based; conditions: Homo sapiens, 24 hrs exposure
Experimental: as §1, §2, §3, §4, §5

[3] = system: HeLa (Cervical Cancer); experiment: Monolayer assay (CCK-8 cytotoxicity); type: cell-based; conditions: Homo sapiens, 24 hrs exposure
Experimental: as §1, §2, §3, §4, §5

[4] = system: Panc-1 (Pancreatic Cancer); experiment: Monolayer assay (CCK-8 cytotoxicity); type: cell-based; conditions: Homo sapiens, 24 hrs exposure
Experimental: as §1, §2, §3, §4, §5

[5] = system: H460; experiment: Monolayer assay (CCK-8 cytotoxicity); type: cell-based; conditions: Homo sapiens, NCI-H460, H460, Non Small Cell Lung, 24 hrs exposure
Experimental: as §1, §2, §3, §4, §5

[6] = system: G361 (Melanoma); experiment: Monolayer assay (CCK-8 cytotoxicity); type: cell-based; conditions: Homo sapiens, G-361, 24 hrs exposure
Experimental: as §1, §2, §3, §4, §5

[7] = system: JURKAT (T cell leukaemia); experiment: Monolayer assay (CCK-8 cytotoxicity); type: cell-based; conditions: Homo sapiens, 24 hrs exposure
Experimental: as §1, §2, §3, §4, §5

[8] = system: Calu-1 (Lung Carcinoma); experiment: Monolayer assay (CCK-8 cytotoxicity); type: cell-based; conditions: Homo sapiens, 24 hrs exposure
Experimental: as §1, §2, §3, §4, §5

[9] = system: FADU (Head and Neck Cancer); experiment: Monolayer assay (CCK-8 cytotoxicity); type: cell-based; conditions: Homo sapiens, 24 hrs exposure
Experimental: as §1, §2, §3, §4, §5

[10] = system: cleaved caspase 3 in HeLa cells; experiment: Protein expression by high content screening (Cellomics); type: cell-based, human; conditions: for Fold activation with respect to control cells, Cleaved Caspase 3: HeLa cells, after 3 hours
Experimental: (§6) Protein expressions of cyclin D, nuclear factor-kappa B (p65) [NFkB (p65)], ribosomal protein S6 (pS6), tumor protein 53 (p53), protein c-jun N-terminal kinase (pJNK), cleaved caspase 9, cleaved caspase 3 and cleaved poly(ADP-ribose) polymerase (PARP) was carried out in HeLa cells [referred to in step 1 of example 16] by Cellomics high content imaging. These primary antibodies were purchased from Santacruz Biotechnology, USA. Briefly 1×10^4 cells were seeded in 96 well tissue culture grade black plate with transparent bottom (Nunc, USA), and allowed to adhere for 24 h, and then replaced with fresh media, and cells were treated with 0.01 μM, 0.003 μM and 0.0003 μM concentrations of compound of Formula (1) [referred to in step 2 of example 16] and incubated for 1 h and 3 h respectively. After respective time point, cells were fixed with 3.7% formaldehyde (Sigma St. Louis, Mo.) for 10 minutes at RT, followed by permeabilization with 0.15% Triton X-100 (Sigma St. Louis, Mo.) for 10 minutes. Then the cells were blocked with 5% Bovine Serum Albumin for 2 hours. After blocking step, specific primary antibodies were added for 1 h, and primary antibodies of different protein were localized by secondary antibody labeled with Dylight548 (red) (Thermofisher, USA). Following secondary incubation, the nucleus was stained with Hoechst 3342 (blue) (Sigma, USA). Immunofluorescence was determined by scanning the plates on Cellomics Array Scan® VTI HCS Reader (Thermo-Fisher Scientific Inc., Waltham, Mass.). All the data points were analyzed using the Compartmental Analysis bio-algorithm of Cellomics and quantitative data were expressed as % activation in comparison to the untreated cells. 1000 cells were counted for each replicate well and the results were presented as an average±S.E.

[11] = system: cleaved poly(ADP-ribose) polymerase (PARP) in HeLa cells; experiment: as above; type: cell-based, human; conditions: for Fold activation with respect to control cells, Cleaved PARP: HeLa cells, after 3 hours
Experimental: as §6

[12] = system: ribosomal protein S6 (pS6) in HeLa cells; experiment: as above; type: cell-based, human; conditions: for Fold down regulation with respect to control cells, pS6: HeLa cells, after 3 hours
Experimental: as §6

[13] = Solubility (physical properties); type: physicochemical

CC(C)CC1CCC(O)(C(C)(O)C(=O)NC2C(=O)N3NCCCC3C(=O)N(O)C(C)C(=O)NCC(=O)N3NCCCC3C(=O)N(O)C(C)C(=O)OC2C(C)C)OC1C (centres unmarked) [Formula (1a), N-(6,18-dihydroxy-22-isopropyl-7,19-dimethyl-5,8,11,17,20,24-hexaoxotetracosa hydrodipyridazino[6,1-f:6′,1′-o][1,4,7,10,13,16]oxapentaazacyclononadecin-23-yl)-2-hydroxy-2-(2-hydroxy-5-isobutyl-6-methyltetrahydro-2H-pyran-2-yl)propanamide]
IC50 [1]: 2.9 ± 0.48 nM | IC50 [2]: 7.1 ± 0.64 nM | IC50 [3]: 10.1 ± 3.1 nM | IC50 [4]: 1.3 ± 0.32 nM | IC50 [5]: 9.2 ± 0.76 nM | IC50 [6]: 24.1 ± 4.3 nM | IC50 [7]: 15.9 ± 2.6 nM | IC50 [8]: 25.2 ± 3.5 nM | IC50 [9]: 22.4 ± 1.2 nM | Fold activation with respect to control cells, Cleaved Caspase 3 ([10]; 0.0003 μM): −0.04 fold | Fold activation with respect to control cells, Cleaved Caspase 3 ([10]; 0.003 μM): 0.53 fold | Fold activation with respect to control cells, Cleaved Caspase 3 ([10]; 0.01 μM): 1.62 fold | effect on cleaved caspase 3 (in words) ([10]; cancer cells, conclusion): prominent upregulation | Fold activation with respect to control cells, Cleaved PARP ([11]; 0.0003 μM): 0.52 fold | Fold activation with respect to control cells, Cleaved PARP ([11]; 0.003 μM): 1.09 fold | Fold activation with respect to control cells, Cleaved PARP ([11]; 0.01 μM): 1.51 fold | effect on cleaved PARP (in words) ([11]; cancer cells, conclusion): prominent upregulation | Fold down regulation with respect to control cells, pS6 ([12]; 0.0003 μM): −0.42 fold | Fold down regulation with respect to control cells, pS6 ([12]; 0.003 μM): −0.56 fold | Fold down regulation with respect to control cells, pS6 ([12]; 0.01 μM): −1.97 fold | effect on pS6 protein expression (in words) ([12]; cancer cells, conclusion): significantly downregulates | Solubility in organic solvents ([13]; chloroform, ethyl acetate and methanol): Soluble in chloroform, ethyl acetate and methanol; | Solubility in water ([13]; water): insoluble in water

Reference: patent publication US9475842B2, “Hexadepsipeptide analogues as anticancer compounds” (PIRAMAL ENTERPRISES LIMITED, priority 2012, dated 2016)
